One assay concerns the target T1, Mer (Homo sapiens, UniProt Q12866).
T1 construct: host or cells: 293A cells (Thermo Fisher #R70507)
T1 sequence (Q12866 21-999): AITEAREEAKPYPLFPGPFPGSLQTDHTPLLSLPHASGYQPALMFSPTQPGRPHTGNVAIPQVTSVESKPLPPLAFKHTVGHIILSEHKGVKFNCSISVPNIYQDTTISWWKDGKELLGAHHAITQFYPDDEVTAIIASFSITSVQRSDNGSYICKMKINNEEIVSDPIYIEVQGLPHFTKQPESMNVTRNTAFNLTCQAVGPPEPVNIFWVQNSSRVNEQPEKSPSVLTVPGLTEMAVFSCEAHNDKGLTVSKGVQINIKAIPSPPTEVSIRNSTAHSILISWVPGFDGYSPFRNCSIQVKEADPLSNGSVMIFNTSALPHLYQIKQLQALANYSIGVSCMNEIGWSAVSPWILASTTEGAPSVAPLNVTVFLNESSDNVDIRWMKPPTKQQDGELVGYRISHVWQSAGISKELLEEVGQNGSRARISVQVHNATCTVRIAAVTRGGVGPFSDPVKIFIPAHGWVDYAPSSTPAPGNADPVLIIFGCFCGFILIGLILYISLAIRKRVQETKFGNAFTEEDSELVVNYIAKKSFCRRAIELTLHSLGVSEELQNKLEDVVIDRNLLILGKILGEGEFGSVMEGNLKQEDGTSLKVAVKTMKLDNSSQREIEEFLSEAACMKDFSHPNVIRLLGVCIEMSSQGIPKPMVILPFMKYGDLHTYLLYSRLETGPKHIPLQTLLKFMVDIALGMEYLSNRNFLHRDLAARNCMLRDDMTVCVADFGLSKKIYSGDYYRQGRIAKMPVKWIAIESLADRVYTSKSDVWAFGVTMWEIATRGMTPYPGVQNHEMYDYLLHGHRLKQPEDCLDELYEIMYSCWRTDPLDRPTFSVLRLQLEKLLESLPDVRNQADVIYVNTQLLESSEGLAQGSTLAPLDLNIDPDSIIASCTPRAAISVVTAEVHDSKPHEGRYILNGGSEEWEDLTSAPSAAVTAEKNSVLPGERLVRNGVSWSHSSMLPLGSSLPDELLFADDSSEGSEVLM
The assay can be described thus: Mer autophosphorylation ELISA in transient transfected 293A cells. The format is cell-based. To be noted: cellular activity; MERTK-transfected 293A cells, phospho-Mer ELISA. In outline:
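293A cells transiently transfected with human MERTK DNA, then treated 1 h with 8-point compound dilutions in serum-free medium (0.3% DMSO). Phospho-Mer in lysates quantified by sandwich ELISA against phospho-Mer standard; normalised to DMSO (100%) and reference inhibitor (0%), IC50 from 4-parameter logistic fit.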

Another assay deals with KDR (Homo sapiens, UniProt P35968). The assay is described as follows: KDR autophosphorylation ELISA in HUVEC cells. The format is cell-based. On the set-up: endogenous in cells; host or cells: HUVEC (Lonza #C2519A). To be noted: cellular activity, VEGF165-stimulated, phospho-KDR ELISA. A digest of the protocol: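 Phospho-KDR levels in lysates were measured by ELISA and referenced to stimulated-vehicle (100%) and unstimulated (0%) wells, IC50 from 4-parameter logistic fit. HUVEC, starved 24 h in serum-free medium, received an 8-point compound series (0.3% DMSO) for 1 h before a 5 min 100 ng/mL VEGF165 challenge.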
In general terms: ELISA stands for enzyme-linked immunosorbent assay.

Structures are written as SMILES.

KDR, sequence (P35968 20-1356): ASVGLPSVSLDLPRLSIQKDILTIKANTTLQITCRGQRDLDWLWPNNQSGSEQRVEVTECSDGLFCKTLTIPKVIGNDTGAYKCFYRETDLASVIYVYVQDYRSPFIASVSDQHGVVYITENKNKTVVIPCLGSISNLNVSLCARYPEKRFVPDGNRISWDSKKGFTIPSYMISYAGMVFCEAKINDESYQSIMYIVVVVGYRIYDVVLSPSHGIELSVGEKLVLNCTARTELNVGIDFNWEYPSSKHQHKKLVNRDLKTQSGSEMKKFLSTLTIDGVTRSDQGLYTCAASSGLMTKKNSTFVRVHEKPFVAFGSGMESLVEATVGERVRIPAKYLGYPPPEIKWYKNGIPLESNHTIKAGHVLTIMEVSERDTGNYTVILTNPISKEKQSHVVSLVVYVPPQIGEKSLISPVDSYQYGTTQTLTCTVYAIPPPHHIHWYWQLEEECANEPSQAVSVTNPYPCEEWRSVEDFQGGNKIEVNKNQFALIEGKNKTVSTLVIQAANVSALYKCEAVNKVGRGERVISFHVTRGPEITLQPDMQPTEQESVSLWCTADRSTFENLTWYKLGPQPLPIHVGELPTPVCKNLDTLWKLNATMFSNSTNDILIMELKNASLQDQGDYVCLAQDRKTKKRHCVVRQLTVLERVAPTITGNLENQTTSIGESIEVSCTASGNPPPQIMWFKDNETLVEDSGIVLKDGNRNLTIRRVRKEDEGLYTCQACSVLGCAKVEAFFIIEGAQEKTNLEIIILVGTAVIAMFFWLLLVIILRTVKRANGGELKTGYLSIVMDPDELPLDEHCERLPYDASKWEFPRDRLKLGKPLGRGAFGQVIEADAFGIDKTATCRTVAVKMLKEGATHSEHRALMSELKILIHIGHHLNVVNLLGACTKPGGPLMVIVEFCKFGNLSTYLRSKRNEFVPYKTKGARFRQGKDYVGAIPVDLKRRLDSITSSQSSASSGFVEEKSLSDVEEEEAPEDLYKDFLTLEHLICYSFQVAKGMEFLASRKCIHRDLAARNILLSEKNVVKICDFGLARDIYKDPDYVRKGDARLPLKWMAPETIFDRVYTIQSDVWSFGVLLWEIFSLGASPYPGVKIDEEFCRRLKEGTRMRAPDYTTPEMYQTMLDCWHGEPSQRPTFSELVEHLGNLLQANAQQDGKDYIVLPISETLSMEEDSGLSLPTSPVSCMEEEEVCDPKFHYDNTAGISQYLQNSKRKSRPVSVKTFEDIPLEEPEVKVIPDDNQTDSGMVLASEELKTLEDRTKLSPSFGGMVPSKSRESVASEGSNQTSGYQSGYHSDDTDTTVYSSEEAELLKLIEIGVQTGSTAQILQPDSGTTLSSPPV

What is called IC50 is the concentration at which inhibition is half-maximal. A higher IC50 goes with weaker potency in that assay. As to `Cn1nccc1-c1ccc2c(Oc3ccc(NC(=O)C4(C(=O)Nc5ccc(F)cc5)CC4)cc3)ccnc2c1` [Compound 54, 1-N′-(4-Fluorophenyl)-1-N-[4-[7-(2-methylpyrazol-3-yl)quinolin-4-yl]oxyphenyl]cyclopropane-1,1-dicarboxamide], the IC50 at Mer and on KDR was 10 to 100 nM in each case.
Regarding `O=C(Nc1ccc(F)cc1)C1(C(=O)Nc2ccc(Oc3ccnc4cc(-c5cnn(CC(F)F)c5)ccc34)cc2)CC1` [Compound 15, 1-N-[4-[7-[1-(2,2-Difluoroethyl)pyrazol-4-yl]quinolin-4-yl]oxyphenyl]-1-N′-(4-fluorophenyl)cyclopropane-1,1-dicarboxamide], the concentration for half-maximal inhibition (IC50) was no more than 10 nM against Mer and 10 to 100 nM against KDR.
On the same counts, the results for `Cn1ccc(-c2ccc3c(Oc4ccc(NC(=O)C5(C(=O)Nc6ccc(F)cc6)CC5)cc4)ccnc3c2)n1` [Compound 17, 1-N′-(4-Fluorophenyl)-1-N-[4-[7-(1-methylpyrazol-3-yl)quinolin-4-yl]oxyphenyl]cyclopropane-1,1-dicarboxamide] are 10 to 100 nM and no more than 10 nM.
On to `Cn1cc(-c2ccc3c(Oc4ccc(NC(=O)C5(C(=O)Nc6ccc(F)cc6)CC5)cc4)ccnc3c2)cn1` [Compound 11, 1-N′-(4-Fluorophenyl)-1-N-[4-[7-(1-methylpyrazol-4-yl)quinolin-4-yl]oxyphenyl]cyclopropane-1,1-dicarboxamide], for which the IC50 on Mer and against KDR was no more than 10 nM throughout.
Turning to `CC(C)n1cc(-c2ccc3c(Oc4ccc(NC(=O)C5(C(=O)Nc6ccc(F)cc6)CC5)cc4)ccnc3c2)cn1` [Compound 21, 1-N′-(4-Fluorophenyl)-1-N-[4-[7-(1-propan-2-ylpyrazol-4-yl)quinolin-4-yl]oxyphenyl]cyclopropane-1,1-dicarboxamide], the concentration for half-maximal inhibition (IC50) is 10 to 100 nM against Mer and no more than 10 nM at KDR.
The matching figures for `O=C(Nc1ccc(F)cc1)C1(C(=O)Nc2cc(F)c(Oc3ccnc4cc(-c5cccnc5)ccc34)cc2F)CC1` [Compound 115, 1-N′-[2,5-Difluoro-4-(7-pyridin-3-ylquinolin-4-yl)oxyphenyl]-1-N-(4-fluorophenyl)cyclopropane-1,1-dicarboxamide]: 10 to 100 nM and no more than 10 nM.
Regarding `O=C(Nc1ccc(F)cc1)C1(C(=O)Nc2ccc(Oc3ccnc4cc(-c5cncc(F)c5)ccc34)cc2)CC1` [Compound 45, 1-N′-(4-Fluorophenyl)-1-N-[4-[7-(5-fluoropyridin-3-yl)quinolin-4-yl]oxyphenyl]cyclopropane-1,1-dicarboxamide], the IC50 was in the range of 10 to 100 nM at Mer and 100 to 300 nM at KDR.
For `O=C(Nc1ccc(F)cc1)C1(C(=O)Nc2ccc(Oc3ccnc4cc(C5CCNC5)ccc34)cc2)CC1` (stereo not drawn) [Compound 83, 1-N′-(4-Fluorophenyl)-1-N-[4-(7-pyrrolidin-3-ylquinolin-4-yl)oxyphenyl]cyclopropane-1,1-dicarboxamide], the IC50 on Mer and at KDR was 100 to 300 nM each time.
`Cc1cc2c(Oc3cc(F)c(NC(=O)C4(C(=O)Nc5ccc(F)cc5)CC4)cc3F)ccnc2cc1-c1ncc[nH]1` [Compound 121, 1-N′-[2,5-Difluoro-4-[7-(1H-imidazol-2-yl)-6-methylquinolin-4-yl]oxyphenyl]-1-N-(4-fluorophenyl)cyclopropane-1,1-dicarboxamide]: the IC50 against Mer and against KDR was 10 to 100 nM in each case.
For `O=C(Nc1ccc(F)cc1)C1(C(=O)Nc2ccc(Oc3ccnc4cc(-c5cnn(CCF)c5)ccc34)cc2)CC1` [Compound 14, 1-N-[4-[7-[1-(2-Fluoroethyl)pyrazol-4-yl]quinolin-4-yl]oxyphenyl]-1-N′-(4-fluorophenyl)cyclopropane-1,1-dicarboxamide], the half-maximal inhibitory concentration (IC50) against Mer is no more than 10 nM; on KDR, 10 to 100 nM.
With `Cn1ccnc1-c1ccc2c(Oc3ccc(NC(=O)C4(C(=O)Nc5ccc(F)cc5)CC4)cc3)ccnc2c1` [Compound 75, 1-N′-(4-Fluorophenyl)-1-N-[4-[7-(1-methylimidazol-2-yl)quinolin-4-yl]oxyphenyl]cyclopropane-1,1-dicarboxamide], the half-maximal inhibitory concentration (IC50) against Mer and on KDR was 10 to 100 nM throughout.
Consider `O=C(Nc1ccc(F)cc1)C1(C(=O)Nc2ccc(Oc3ccnc4cc(-c5ccn(C(F)F)n5)ccc34)cc2)CC1` [Compound 84, 1-N-[4-[7-[1-(Difluoromethyl)pyrazol-3-yl]quinolin-4-yl]oxyphenyl]-1-N′-(4-fluorophenyl)cyclopropane-1,1-dicarboxamide], for which the IC50 on Mer and at KDR was 10 to 100 nM throughout.
`Cc1cc2c(Oc3cc(Cl)c(NC(=O)C4(C(=O)Nc5ccc(F)cc5)CC4)cc3F)ccnc2cc1-c1cnn(C)c1` [Compound 112, 1-N′-[2-Chloro-5-fluoro-4-[6-methyl-7-(1-methylpyrazol-4-yl)quinolin-4-yl]oxyphenyl]-1-N-(4-fluorophenyl)cyclopropane-1,1-dicarboxamide]: the IC50 on Mer is 10 to 100 nM; at KDR, greater than 300 nM.
The matching figures for `O=C(Nc1ccc(F)cc1)C1(C(=O)Nc2ccc(Oc3ccnc4cc(-c5cnn(C6COC6)c5)ccc34)cc2)CC1` [Compound 24, 1-N′-(4-Fluorophenyl)-1-N-[4-[7-[1-(oxetan-3-yl)pyrazol-4-yl]quinolin-4-yl]oxyphenyl]cyclopropane-1,1-dicarboxamide]: no more than 10 nM and no more than 10 nM.
On the same counts, the results for `Cn1ncc(-c2ccc3c(Oc4ccc(NC(=O)C5(C(=O)Nc6ccc(F)cc6)CC5)cc4)ccnc3c2)n1` [Compound 86, 1-N′-(4-Fluorophenyl)-1-N-[4-[7-(2-methyltriazol-4-yl)quinolin-4-yl]oxyphenyl]cyclopropane-1,1-dicarboxamide] are 10 to 100 nM and no more than 10 nM.
Consider `CC(=O)N1CCC(n2cc(-c3ccc4c(Oc5ccc(NC(=O)C6(C(=O)Nc7ccc(F)cc7)CC6)cc5)ccnc4c3)cn2)CC1` [Compound 62, 1-N-[4-[7-[1-(1-Acetylpiperidin-4-yl)pyrazol-4-yl]quinolin-4-yl]oxyphenyl]-1-N′-(4-fluorophenyl)cyclopropane-1,1-dicarboxamide], for which the IC50 at Mer and on KDR was no more than 10 nM each time.
As for `CCn1cc(-c2ccc3c(Oc4ccc(NC(=O)C5(C(=O)Nc6ccc(F)cc6)CC5)cc4)ccnc3c2)cn1` [Compound 20, 1-N-[4-[7-(1-Ethylpyrazol-4-yl)quinolin-4-yl]oxyphenyl]-1-N′-(4-fluorophenyl)cyclopropane-1,1-dicarboxamide], the half-maximal inhibitory concentration (IC50) on Mer and at KDR was no more than 10 nM throughout.
Turning to `O=C(Nc1ccc(F)cc1)C1(C(=O)Nc2ccc(Oc3ccnc4cc(-c5ccncc5)ccc34)cc2)CC1` [Compound 26, 1-N′-(4-Fluorophenyl)-1-N-[4-(7-pyridin-4-ylquinolin-4-yl)oxyphenyl]cyclopropane-1,1-dicarboxamide], the IC50 against Mer is 10 to 100 nM; at KDR, no more than 10 nM.
`O=C(Nc1ccc(F)cc1)C1(C(=O)Nc2ccc(Oc3ccnc4cc(-c5ccc(O)nc5)ccc34)cc2)CC1` [Compound 51, 1-N′-(4-Fluorophenyl)-1-N-[4-[7-(6-hydroxypyridin-3-yl)quinolin-4-yl]oxyphenyl]cyclopropane-1,1-dicarboxamide]: the concentration for half-maximal inhibition (IC50) was 10 to 100 nM against Mer and no more than 10 nM at KDR.
`O=C(Nc1ccc(F)cc1)C1(C(=O)Nc2ccc(Oc3ccnc4cc(-c5ccnc(F)c5)ccc34)cc2)CC1` [Compound 33, 1-N′-(4-Fluorophenyl)-1-N-[4-[7-(2-fluoropyridin-4-yl)quinolin-4-yl]oxyphenyl]cyclopropane-1,1-dicarboxamide]: the IC50 on Mer and on KDR was 10 to 100 nM in each case.
For `CS(=O)(=O)n1cc(-c2ccc3c(Oc4ccc(NC(=O)C5(C(=O)Nc6ccc(F)cc6)CC5)cc4)ccnc3c2)cn1` [Compound 79, 1-N′-(4-Fluorophenyl)-1-N-[4-[7-(1-methylsulfonylpyrazol-4-yl)quinolin-4-yl]oxyphenyl]cyclopropane-1,1-dicarboxamide], the results for the IC50 at Mer and against KDR were 10 to 100 nM and no more than 10 nM, respectively.

Values taken from US12503438B2, “Compounds for the treatment of kinase-dependent disorders” (Exelixis, Inc., priority 2019, dated 2025).
